Results: the supplement of paper PMC4862054
Where “and” joins values, the source holds several entries; their conditions need not be identical. Identical values can stand only once.

Experiments:
Conditions in all cases: incubation time: 72 h
DU-4475 [1] = test: normalised viability (% of control), CellTiter-Blue; higher = more viable cells (about 100 = DMSO control)
Procedure, shortened: (§1)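 384-well plates were pre-loaded with compound in 5 µl medium before 20 µl of breast cancer cell suspension was seeded. Following 72 h incubation, 2.5 µl CellTiter-Blue reagent was added for 2 h at 37 °C. Fluorescence was read at 560/590 nm and plates were normalised to vehicle (100) and a positive kill control (0), checked by Z'-factor. Normalised viability is reported at a single listed concentration of the series.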

CAL-51 [2] = test: as above
Procedure, shortened: as §1

MDA-MB-453 [3] = test: as above
Procedure, shortened: as §1

CAL-85-1 [4] = test: as above
Procedure, shortened: as §1

CAL-148 [5] = test: as above
Procedure, shortened: as §1

HDQ-P1 [6] = test: as above
Procedure, shortened: as §1

DU-4475 [7] = test: normalised viability (% of control), CellTiter-Blue; higher = more viable cells (about 100 = DMSO control); remark: listed apart in the source
Method: (§2)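 DSRT, CellTiter-Blue viability, 72 h incubation. Signal is normalised to DMSO and benzethonium chloride controls. Value is the normalised response at dose 7.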

CAL-51 [8] = test: as above; remark: listed apart in the source
Method: as §2

MDA-MB-453 [9] = test: as above; remark: listed apart in the source
Method: as §2

CAL-85-1 [10] = test: as above; remark: listed apart in the source
Method: as §2

CAL-148 [11] = test: as above; remark: listed apart in the source
Method: as §2

HDQ-P1 [12] = test: as above; remark: listed apart in the source
Method: as §2

CAL-85-1 [13] = test: drug sensitivity score (DSS), CellTiter-Glo (DSS (AUC-based score)); higher = stronger drug effect (viability inhibition or cytotoxicity); extreme values may be limits of the assay
Procedure, shortened: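 Normalisation on every plate relied on 0.1 % DMSO and a positive kill control. The plates, 384-well format, held compound at 5 concentrations 10-fold apart across a compound-specific 10,000-fold range, and breast cancer cell lines in 20 µl suspension were incubated on them for 72 h before CellTox Green and then CellTiter-Glo readings. The drug sensitivity score derives from the area under the fitted dose-response curve.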

Row | Structure (SMILES) | normalised viability (DU-4475 [1]) [%] | normalised viability (CAL-51 [2]) [%] | normalised viability (MDA-MB-453 [3]) [%] | normalised viability (CAL-85-1 [4]) [%] | normalised viability (CAL-148 [5]) [%] | normalised viability (HDQ-P1 [6]) [%] | normalised viability (DU-4475 [7]) | normalised viability (CAL-51 [8]) | normalised viability (MDA-MB-453 [9]) | normalised viability (CAL-85-1 [10]) | normalised viability (CAL-148 [11]) | normalised viability (HDQ-P1 [12]) [%] | drug sensitivity score (CAL-85-1 [13])
1 | O=c1[nH]cc(F)c(=O)[nH]1 [Fluorouracil] (10000 nM) | 75.2 | 47.9 | 72.9 | 58.3 | 55.4 | 74.4 |  |  |  |  |  |  | 
2 | C[C@@H]1C=C2C(=O)O[C@@H]3CC[C@H](C1)[C@]23O [Galiellalactone] (5000 nM) |  |  |  |  |  |  | 118% | 105% | 73.7% | 72.6% | 147% | 98 | 
3 | C[C@@H]1C=C2C(=O)O[C@@H]3CC[C@H](C1)[C@]23O [Galiellalactone] (50000 nM) | 77.4 | 43.1 | 9.52 | 9.47 | 22.4 | 41.7 |  |  |  |  |  |  | 
4 | COC1=C2C[C@@H](C)C[C@H](OC)[C@H](O)[C@@H](C)/C=C(\C)[C@H](OC(N)=O)[C@@H](OC)/C=C\C=C(/C)C(=O)NC(=CC1=O)C2=O [Geldanamycin] (1000 nM) |  |  |  |  |  |  | 0.05% | 26.2% | 7.25% | 23.7% | 14.5% | 17.8 | 
5 | COC1=C2C[C@@H](C)C[C@H](OC)[C@H](O)[C@@H](C)/C=C(\C)[C@H](OC(N)=O)[C@@H](OC)/C=C\C=C(/C)C(=O)NC(=CC1=O)C2=O [Geldanamycin] (10000 nM) | -0.94 | 2.17 | 7.62 | 6.88 | 7.57 | 14.5 |  |  |  |  |  |  | 
6 | CS(=O)(=O)CCNCc1ccc(-c2ccc3ncnc(Nc4ccc(OCc5cccc(F)c5)c(Cl)c4)c3c2)o1 [Lapatinib] (1000 nM) |  |  |  |  |  |  | 94.5% and 86.5% | 105% and 94.6% | 38% and 36.7% | 66.4% and 66.5% | 82.4% and 94% |  | 
7 | Cn1cnc2c(F)c(Nc3ccc(Br)cc3F)c(C(=O)NOCCO)cc21 [MEK-162] (100 nM) |  |  |  |  |  |  | 25.7% | 101% | 112% | 82.1% | 98.8% | 107 | 
8 | Cn1cnc2c(F)c(Nc3ccc(Br)cc3F)c(C(=O)NOCCO)cc21 [MEK-162] (1000 nM) | -0.34 | 84.5 | 122 | 70.5 | 90.6 | 91.2 |  |  |  |  |  |  | 
9 | CCOc1cc2ncc(C#N)c(Nc3ccc(OCc4ccccn4)c(Cl)c3)c2cc1NC(=O)/C=C/CN(C)C [Neratinib] (100 nM) |  |  |  |  |  |  | 102% | 92.6% | 76% | 94.9% | 101% | 120 | 
10 | CCOc1cc2ncc(C#N)c(Nc3ccc(OCc4ccccn4)c(Cl)c3)c2cc1NC(=O)/C=C/CN(C)C [Neratinib] (1000 nM) | 105 | 92.5 | 75.8 | 101 | 79.5 | 116 |  |  |  |  |  |  | 
11 | COc1ccc(C2=N[C@@H](c3ccc(Cl)cc3)[C@@H](c3ccc(Cl)cc3)N2C(=O)N2CCNC(=O)C2)c(OC(C)C)c1 [Nutlin-3] (1000 nM) |  |  |  |  |  |  | 94.7% | 95.8% | 97.2% | 88.9% | 91.6% | 119 | 
12 | COc1ccc(C2=N[C@@H](c3ccc(Cl)cc3)[C@@H](c3ccc(Cl)cc3)N2C(=O)N2CCNC(=O)C2)c(OC(C)C)c1 [Nutlin-3] (10000 nM) | 36.1 | 53.3 | 90 | 86.6 | 57.3 | 111 |  |  |  |  |  |  | 
13 | COC1=CC(c2cc3ccccc3[nH]2)=N/C1=C\c1[nH]c(C)cc1C [Obatoclax] (1000 nM) |  |  |  |  |  |  | 78.4% | 72.3% | 34% | 57.5% | 78.3% | 41.6 | 
14 | COC1=CC(c2cc3ccccc3[nH]2)=N/C1=C\c1[nH]c(C)cc1C [Obatoclax] (10000 nM) | 30 | 6.23 | 18.6 | 22.1 | 10.8 | 35.5 |  |  |  |  |  |  | 
15 | CC(=O)O[C@H]1C(=O)[C@@]2(C)[C@H]([C@H](OC(=O)c3ccccc3)[C@]3(O)C[C@H](OC(=O)[C@H](O)[C@@H](NC(=O)c4ccccc4)c4ccccc4)C(C)=C1C3(C)C)[C@]1(OC(C)=O)CO[C@@H]1C[C@@H]2O [Paclitaxel] (100 nM) |  |  |  |  |  |  | 27.3% | 23.4% | 24.8% | 31.8% | 20.8% | 33 | 
16 | CC(=O)O[C@H]1C(=O)[C@@]2(C)[C@H]([C@H](OC(=O)c3ccccc3)[C@]3(O)C[C@H](OC(=O)[C@H](O)[C@@H](NC(=O)c4ccccc4)c4ccccc4)C(C)=C1C3(C)C)[C@]1(OC(C)=O)CO[C@@H]1C[C@@H]2O [Paclitaxel] (1000 nM) | 1.41 | 10.7 | 21 | 33.1 | 14.7 | 32.7 |  |  |  |  |  |  | 
17 | CC(C)(C)c1cc(NC(=O)Nc2ccc(-c3cn4c(n3)sc3cc(OCCN5CCOCC5)ccc34)cc2)no1 [Quizartinib] |  |  |  |  |  |  |  |  |  |  |  |  | 0
18 | CC(C)(C)c1cc(NC(=O)Nc2ccc(-c3cn4c(n3)sc3cc(OCCN5CCOCC5)ccc34)cc2)no1 [Quizartinib] (100 nM) |  |  |  |  |  |  | 115% | 114% | 96.6% | 89.6% | 98.8% | 95 | 
19 | O=C(c1ccc(OCCN2CCCCC2)cc1)c1c(-c2ccc(O)cc2)sc2cc(O)ccc12 [Raloxifene] (1000 nM) |  |  |  |  |  |  | 86.2% | 91.5% | 97.1% | 101% | 112% | 81.3 | 
20 | Cn1c(=O)c(F)c(Nc2ccc(I)cc2F)c2c(=O)n(C[C@@H](O)CO)cnc21 [TAK-733] (100 nM) |  |  |  |  |  |  | 0.99% | 77.7% | 89.1% | 60.2% | 95% | 92 | 
21 | CCS(=O)(=O)c1cccc(-c2cc(C(=O)NC3CCN(C)CC3)c(C)c3[nH]c4ncc(C)cc4c23)c1 [TAK-901] (100 nM) |  |  |  |  |  |  | 78.5% | 56.5% | 65% | 70.4% | 40.3% | 87.2 | 
